From the NIST ThermoML archive (doi:10.1021/je200721d)

Assay: xn = mol fraction of the nth substance listed
Details: Liquid, Vibrating tube method

CCCCCCCC [octane] + CCCCCC
Details | mass density [kg/m3]
342.99 K, 19000 kPa, x2 = 0.1654 | 676.86
342.99 K, 20000 kPa, x2 = 0.1654 | 677.79
342.99 K, 21000 kPa, x2 = 0.1654 | 678.7
342.99 K, 22000 kPa, x2 = 0.1654 | 679.59
342.99 K, 23000 kPa, x2 = 0.1654 | 680.47
342.99 K, 24000 kPa, x2 = 0.1654 | 681.32
342.99 K, 25000 kPa, x2 = 0.1654 | 682.14
343 K, 1000 kPa, x2 = 0.7995 | 627.89
343 K, 2000 kPa, x2 = 0.7995 | 629.27
343 K, 3000 kPa, x2 = 0.7995 | 630.64
343 K, 4000 kPa, x2 = 0.7995 | 632.01
343 K, 5000 kPa, x2 = 0.7995 | 633.35
343 K, 6000 kPa, x2 = 0.7995 | 634.69
343 K, 7000 kPa, x2 = 0.7995 | 636.02
343 K, 8000 kPa, x2 = 0.7995 | 637.32
343 K, 9000 kPa, x2 = 0.7995 | 638.61
343 K, 10000 kPa, x2 = 0.7995 | 639.87
343 K, 11000 kPa, x2 = 0.7995 | 641.1
343 K, 12000 kPa, x2 = 0.7995 | 642.32
343 K, 13000 kPa, x2 = 0.7995 | 643.52
343 K, 14000 kPa, x2 = 0.7995 | 644.7
343 K, 15000 kPa, x2 = 0.7995 | 645.87
343 K, 16000 kPa, x2 = 0.7995 | 647.01
343 K, 17000 kPa, x2 = 0.7995 | 648.12
343 K, 18000 kPa, x2 = 0.7995 | 649.21
343 K, 19000 kPa, x2 = 0.7995 | 650.28
343 K, 20000 kPa, x2 = 0.7995 | 651.33
343 K, 21000 kPa, x2 = 0.7995 | 652.33
343 K, 22000 kPa, x2 = 0.7995 | 653.33
343 K, 23000 kPa, x2 = 0.7995 | 654.3
343 K, 24000 kPa, x2 = 0.7995 | 655.24
343 K, 25000 kPa, x2 = 0.7995 | 656.16
352.79 K, 1000 kPa, x2 = 0.5749 | 631.4
352.79 K, 2000 kPa, x2 = 0.5749 | 632.83
352.79 K, 3000 kPa, x2 = 0.5749 | 634.2
352.79 K, 4000 kPa, x2 = 0.5749 | 635.57
352.79 K, 5000 kPa, x2 = 0.5749 | 636.95
352.79 K, 6000 kPa, x2 = 0.5749 | 638.3
352.79 K, 7000 kPa, x2 = 0.5749 | 639.63
352.79 K, 8000 kPa, x2 = 0.5749 | 640.97
352.79 K, 9000 kPa, x2 = 0.5749 | 642.26
352.79 K, 10000 kPa, x2 = 0.5749 | 643.53
352.79 K, 11000 kPa, x2 = 0.5749 | 644.82
352.79 K, 12000 kPa, x2 = 0.5749 | 646.04
352.79 K, 13000 kPa, x2 = 0.5749 | 647.27
352.79 K, 14000 kPa, x2 = 0.5749 | 648.46
352.79 K, 15000 kPa, x2 = 0.5749 | 649.66
352.79 K, 16000 kPa, x2 = 0.5749 | 650.79
352.79 K, 17000 kPa, x2 = 0.5749 | 651.95
352.79 K, 18000 kPa, x2 = 0.5749 | 653.02
352.79 K, 19000 kPa, x2 = 0.5749 | 654.11
352.79 K, 20000 kPa, x2 = 0.5749 | 655.18
352.79 K, 21000 kPa, x2 = 0.5749 | 656.24
352.79 K, 22000 kPa, x2 = 0.5749 | 657.22
352.79 K, 23000 kPa, x2 = 0.5749 | 658.23
352.79 K, 24000 kPa, x2 = 0.5749 | 659.22
352.79 K, 25000 kPa, x2 = 0.5749 | 660.15
352.85 K, 1000 kPa, x2 = 0.2199 | 646.75
352.85 K, 2000 kPa, x2 = 0.2199 | 648.04
352.85 K, 3000 kPa, x2 = 0.2199 | 649.32
352.85 K, 4000 kPa, x2 = 0.2199 | 650.6
352.85 K, 5000 kPa, x2 = 0.2199 | 651.87
352.85 K, 6000 kPa, x2 = 0.2199 | 653.11
352.85 K, 7000 kPa, x2 = 0.2199 | 654.35
352.85 K, 8000 kPa, x2 = 0.2199 | 655.57
352.85 K, 9000 kPa, x2 = 0.2199 | 656.79
352.85 K, 10000 kPa, x2 = 0.2199 | 657.97
352.85 K, 11000 kPa, x2 = 0.2199 | 659.16
352.85 K, 12000 kPa, x2 = 0.2199 | 660.32
352.85 K, 13000 kPa, x2 = 0.2199 | 661.45
352.85 K, 14000 kPa, x2 = 0.2199 | 662.57
352.85 K, 15000 kPa, x2 = 0.2199 | 663.67
352.85 K, 16000 kPa, x2 = 0.2199 | 664.74
352.85 K, 17000 kPa, x2 = 0.2199 | 665.8
352.85 K, 18000 kPa, x2 = 0.2199 | 666.83
352.85 K, 19000 kPa, x2 = 0.2199 | 667.85
352.85 K, 20000 kPa, x2 = 0.2199 | 668.84
352.85 K, 21000 kPa, x2 = 0.2199 | 669.8
352.85 K, 22000 kPa, x2 = 0.2199 | 670.75
352.85 K, 23000 kPa, x2 = 0.2199 | 671.68
352.85 K, 24000 kPa, x2 = 0.2199 | 672.59
352.85 K, 25000 kPa, x2 = 0.2199 | 673.48
352.91 K, 1000 kPa, x2 = 0.1654 | 648.87
352.91 K, 1000 kPa, x2 = 0.9308 | 609.77
352.91 K, 2000 kPa, x2 = 0.1654 | 650.15
352.91 K, 2000 kPa, x2 = 0.9308 | 611.36
352.91 K, 3000 kPa, x2 = 0.1654 | 651.43
352.91 K, 3000 kPa, x2 = 0.9308 | 612.95
352.91 K, 4000 kPa, x2 = 0.1654 | 652.68
352.91 K, 4000 kPa, x2 = 0.9308 | 614.51
352.91 K, 5000 kPa, x2 = 0.1654 | 653.95
352.91 K, 5000 kPa, x2 = 0.9308 | 616.06
352.91 K, 6000 kPa, x2 = 0.1654 | 655.19
352.91 K, 6000 kPa, x2 = 0.9308 | 617.57
